Measured values reported in patent US12558340B2, “ANAVEX2-73 for the treatment of genetic neurodevelopmental disorders” (ANAVEX LIFE SCIENCES CORP., priority 2019, dated 2026).

Legend:
[1] = tested on: glutamate biomarker in plasma; test: Example 5: glutamate biomarker in plasma of Rett Syndrome subjects; format: in vivo, human; details: week 0 vs week 7; Wilcoxon p (2-tailed)=0.046
Excerpt: In one aspect, the method further comprises measuring, or having measured or obtained a baseline biomarker level in the subject prior to treatment with ANAVEX2-73 as described herein, wherein the biomarker comprises plasma glutamate, gamma aminobutyric acid (GABA), PI3K, pAkt, mTOR, pMAPK, pERK, or any combinations thereof, and measuring or having measured or obtained at least a second level of the biomarker following a period of treatment with ANAVEX2-73 as described herein. […]
(§1) For efficacy, the following parameters were measured in the female subjects: Rett Syndrome Behavior Questionare (RSBQ), Clinical Global Impressions (CGI-I), hand behaviors (RSBQ), breathing problems (RSBQ), waking during sleep (RSBQ), and glutamate biomarker, and GABA biomarkers.
Evaluation of the efficacy was measured as a comparison from baseline (week 0), week 4, and to end of treatment (week 7). Blood plasma samples were analyzed at week 0 and at week 7 to measure the levels of glutamate and GABA biomarkers. […]

[2] = tested on: subject diagnosed with Rett Syndrome; test: Example 1: liquid formulation given to a subject with Rett Syndrome; format: in vivo, human; details: 5 mL of a liquid formulation (0.2 mg/mL)
Description: A subject diagnosed with Rett Syndrome was administered 5 mL of a liquid formulation (0.2 mg/mL).

BDNF = details: 1 mg/kg IP twice daily for two weeks; cited from earlier work
[3] = tested on: female subjects diagnosed with Rett Syndrome; test: Example 5: 7-week daily treatment of Rett Syndrome subjects (RSBQ, CGI-I); format: in vivo, human
Description: Six female subjects ranging from 16 to 22 years of age diagnosed with Rett Syndrome were administered 5 mg ANAVEX2-73 liquid formulation (1 m_of a 5 mg/mI_ANAVEX2-73 solution) daily for a total daily dose of […], over a period of 7 weeks.
as §1
Evaluation of the efficacy was measured as a comparison from baseline (week 0), week 4, and to end of treatment (week 7). Blood plasma samples were analyzed at week 0 and at week 7 to measure the levels of glutamate and GABA biomarkers. The evaluation of efficacy used a two-tailed statistical analysis.

[4] = tested on: Fmr1 knockout 2 mice, KO2; details: 1 mg/kg IP twice daily for two weeks; cited from earlier work
pERK = pERK levels in peripheral lymphocytes of Fmr1 KO2 mice (flow cytometry); format: in vivo; details: 1 mg/kg IP twice daily for two weeks, 7 per group, t-test p=0.046, post-hoc p=0.096
Description: (§2) In the aforementioned study by Reyes et al., ANAVEX2-73 or saline were administered twice daily at a dose of 1 mg/kg IP, to 2-month-old Fmr1 KO2 mice and wild type counterparts (N=10 mice per group, 40 mice total; for blood sample analyses: 5-7 mice per group) for two weeks. Brain samples were harvested for biochemical and molecular studies, blood samples were collected at baseline and on the last day of the behavioral assessments. Complementary cell signaling analyses were also conducted. These analyses were important because of their relevance to both preclinical and clinical research in FXS. Peripheral lymphocytes were isolated and stimulated with Phorbol-12-Myristate-13-Acetate in a buffer without phosphatase inhibitors but with U0126 (inhibitor of MAPK kinase). […] Resuspended cells were analyzed in a Coulter XL3 flow cytometer. […] Levels of pAkt and pERK were first characterized in terms of distribution, by the Shapiro-Wilk test of normality and Levene's and Bartlett's tests, which determined that all data were distributed normally and had equal variances. […] Once a significant difference was found, a two-way univariate ANOVA with genotype and treatment as between-subject factors, followed by a Tukey's post-hoc test, evaluated the differences between drug-treated and vehicle-treated WT and Fmr1 KO2 mice. […]

pAkt = pAkt levels in peripheral lymphocytes of Fmr1 KO2 mice (flow cytometry); format: in vivo
Description: as §2

healthy male volunteers = details: cited from earlier work
[5] = tested on: subject diagnosed with Rett Syndrome; test: Example 6: liquid formulation given to a subject with Rett Syndrome; format: in vivo, human; details: 1 mL of a liquid formulation (0.2 mg/mL)
Description: A subject, diagnosed with Rett Syndrome is administered 1 mL of a liquid formulation (0.2 mg/mL).

physchem = format: physicochemical
Excerpt: Dosage formulations used in the disclosed methods comprise a therapeutically effective amount of ANAVEX2-73, the crystalline HCI salt of tetrahydro-N,N-dimethyl-2,2-diphenyl-3-furanmethanamine, or tetrahydro-N,N-dimethyl-2,2-diphenyl-3-furanmethanamine hydrochloride (IUPAC name: 1-(2,2-diphenyloxolan-3-yl)-A/,A/-dimethylmethanamine hydrochloride). […] Thus ANAVEX2-73 (used herein to refer to the HCI salt or the free base) is highly amenable to incorporation in the dosage formulations disclosed herein. For example, ANAVEX2-73 as either the HCI salt or the free base has a relatively low molecular weight (<400 Da), and is thus well suited for transmucosal or transdermal delivery, or rapid oral delivery. ANAVEX2-73 has a pKa around 8-9, which also makes it well-suited for transmucosal delivery. Therapeutically effective doses of ANAVEX2-73 are well suited for various thin film formulations, including oral and transdermal thin film formulations.

In the case of CN(C)CC1CCOC1(c1ccccc1)c1ccccc1.Cl (stereo not drawn) [ANAVEX2-73, tetrahydro-N,N-dimethyl-2,2-diphenyl-3-furanmethanamine hydrochloride], the “levels of glutamate biomarker in plasma” value [1] is reported as “decreased significantly”, the cognition [2] is reported as “improvement” and the motor skills [2] is reported as “improvement”. The “BDNF levels in the hippocampus” value (BDNF) was “normalized”, the “RSBQ and CGI-I” value ([3]; after 7 weeks, p=0.003) was “reduction” and the “improvement in the RSBQ (total score)” value ([3]; all six subjects, 5 mg liquid formulation daily, week 0 vs week 7) was “over 30%”. For the same compound, the “breathing problems (RSBQ)” value ([3]; compared to week 0, p=0.042) was “improvement”, the “hand behaviors (RSBQ)” value ([3]; compared to week 0, p=0.042) was “improvement” and the “waking during sleep (RSBQ)” value ([3]; compared to week 0, p=0.042) was “improvement”. The “three neurobehavioral phenotypes (open field test, contextual fear conditioning, marble-burying)” value [4] was “marked improvement or normalization”, the “pERK levels, drug-treated vs vehicle-treated Fmr1 KO2 mice” value (pERK) was “mildly reduced” and the “pAkt levels, drug-treated vs vehicle-treated Fmr1 KO2 mice” value (pAkt; 1 mg/kg IP twice daily for two weeks, 5 animals per group, p=0.01) was “significantly lower”. The “pAkt levels, drug-treated mutant mice vs vehicle-treated WT mice” value (pAkt; ANOVA) was “comparable”, the safety and tolerability (healthy male volunteers; ascending single oral doses of 1, 10, 30, 40, 50 and 55 mg, healthy subjects) was “safe and well tolerated” and the observed adverse events (healthy male volunteers; at highest doses) was “only moderate and reversible dizziness and headache”. For the same compound, the “minimum intolerable dose (MID)” value (healthy male volunteers; human, in vivo, po) was 60 mg, the serious adverse events (healthy male volunteers; single ascending oral doses) was “No serious adverse events occurred” and the “maximum tolerable dose (MTD)” value (healthy male volunteers; single oral dose, based on frequency and intensity of adverse events) was 55 mg. For the same compound, the CGI-I index [5] was “improvement”, the “Rett Syndrome Behavior Questionnaire (RSBQ)” value [5] was “improvement” and the chemical stability (physchem) was “excellent”. The pKa (physchem) was 8 to 9, the “solubility in organic solvents” value (physchem) was “soluble in almost all organic solvents” and the water solubility (physchem) was “high”.
